Patent US10233186B2, “Inhibitors of activin receptor-like kinase” (BLUEPRINT MEDICINES CORPORATION, priority 2016, dated 2019)

Key:
[1] = molecular target: T1, human ALK2 R206H (Homo sapiens, UniProt Q04771, R206H); experiment: Cell-based ALK2-R206H cell activity assay (Smad1-Ser463/Ser465 phosphorylation by AlphaLISA in HEK293-ALK2-R206H cells); conditions: read-out: Cell Line (Cell Assay IC50)
T1 construct: expressed in transfected cells; host or cells: HEK293 (ATCC CRL1573), lentivirus transduction, blasticidin selection
T1 sequence (Q04771 21-509 R206H): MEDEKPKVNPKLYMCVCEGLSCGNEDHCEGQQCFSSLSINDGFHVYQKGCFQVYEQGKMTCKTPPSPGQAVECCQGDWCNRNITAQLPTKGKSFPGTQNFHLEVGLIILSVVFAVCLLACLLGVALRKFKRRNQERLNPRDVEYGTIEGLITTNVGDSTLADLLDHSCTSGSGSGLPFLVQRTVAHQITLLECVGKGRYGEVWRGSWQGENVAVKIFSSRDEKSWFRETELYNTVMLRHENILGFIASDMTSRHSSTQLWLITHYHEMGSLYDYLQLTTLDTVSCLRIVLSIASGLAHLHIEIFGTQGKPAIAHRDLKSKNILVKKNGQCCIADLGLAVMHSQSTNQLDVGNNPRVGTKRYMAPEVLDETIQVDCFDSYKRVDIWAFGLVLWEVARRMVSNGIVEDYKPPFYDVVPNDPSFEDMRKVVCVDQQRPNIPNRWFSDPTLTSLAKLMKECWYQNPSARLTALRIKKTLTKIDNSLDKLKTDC
Summary of the method: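 Stable HEK293 cells expressing C-terminally FLAG-tagged human ALK2 R206H (lentiviral, blasticidin-selected) were treated with compounds in 10-point, 3-fold dilutions from 10 μM or 1 μM top, in duplicate. Smad1 Ser463/Ser465 phosphorylation was read by AlphaLISA.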

[2] = molecular target: T2, ALK2 R206H (GST-tagged mutant ALK2) (Homo sapiens, UniProt Q04771, R206H); experiment: ALK binding assay (LANTHASCREEN TR-FRET competitive binding, displacement of Kinase Tracer 178); conditions: ALK2 R206H, LANTHASCREEN TR-FRET competitive binding; read-out: Binding Assay (IC50)
T2 construct: purchased Carna Bioscience or ThermoFisher 09-148 or PV6232
T2 sequence (Q04771 21-509 R206H): T1 sequence (Q04771 21-509 R206H)

Structure (SMILES)	IC50 [1] [nM]	IC50 [2] [nM]
COC1(c2ccc(-c3cc4c(N5CCN(C(=O)NC(C)C)CC5)ccnn4c3)cc2F)CCN(C(C)C)CC1 [Compound 720]	< 100	< 10
COC1(c2ccc(-c3cc4c(N5CCN(C(=O)NC(C)C)CC5)ccnn4c3)c(F)c2)CCN(C(C)C)CC1 [Compound 721]	< 100	< 10
COC1(c2ccc(-c3cc4c(N5CCN(C(=O)NC(C)C)CC5)ccnn4c3)cc2F)CCCN(C(C)C)C1 (stereo not drawn) [Compound 722]	< 100	< 10
CO[C@]1(c2ccc(-c3cc4c(N5CCN(C(=O)NC(C)C)CC5)ccnn4c3)cc2F)CCCN(C(C)C)C1 [Compound 723]	< 100	< 10
CO[C@@]1(c2ccc(-c3cc4c(N5CCN(C(=O)NC(C)C)CC5)ccnn4c3)cc2F)CCCN(C(C)C)C1 [Compound 724]	< 100	< 10
COC1(c2cnc(-c3cc4c(N5CCN(C(=O)NC(C)C)CC5)ccnn4c3)c(F)c2)CCN(C(C)C)CC1 [Compound 725]	< 100	< 10
CC(C)N1CCC(c2ccc(-c3cc4c(N5CCN(C(=O)C6CC6)CC5)ccnn4c3)cc2)(C(F)(F)F)CC1 [Compound 727]	< 100	< 10
COC1(c2ccc(-c3cc4c(N5CCN(C(=O)[C@H]6C[C@H](C#N)C6)CC5)ccnn4c3)cc2)CCN(C(C)C)CC1 [Compound 728]	< 100	< 10
COC1(c2ccc(-c3cc4c(N5CCN(C(=O)C6CCC(C#N)CC6)CC5)ccnn4c3)cc2)CN(C(C)C)C1 (stereo not drawn) [Compound 729]	< 100	< 10
COC1(c2ccc(-c3cc4c(N5CCN(C(=O)[C@H]6C[C@H](C#N)C6)CC5)ccnn4c3)nc2)CCN(C(C)C)CC1 [Compound 731]	< 100	< 10
COC1(c2ccc(-c3cc4c(N5CCN(C(=O)OC6COC6)CC5)ccnn4c3)nc2)CCN(C2COC2)CC1 [Compound 733]	< 100	< 10
CCOC1(c2ccc(-c3cc4c(N5CCN(C(=O)OC6COC6)CC5)ccnn4c3)nc2)CCN(C(C)C)CC1 [Compound 734]	< 100	< 10
COC[C@@H](C)N1CCC(OC)(c2ccc(-c3cc4c(N5CCN(C(=O)NC(C)C)CC5)ccnn4c3)nc2)CC1 [Compound 735]	< 100	< 10
COC[C@H](C)N1CCC(OC)(c2ccc(-c3cc4c(N5CCN(C(=O)NC(C)C)CC5)ccnn4c3)nc2)CC1 [Compound 736]	< 100	< 10
COC1(c2ccc(-c3cc4c(N5CCN(C(=O)OC6COC6)CC5)ccnn4c3)c(F)c2)CCN(C(C)C)CC1 [Compound 737]	< 100	< 10
CC(C)NC(=O)N1CCN(c2ccnn3cc(-c4ccc(C5(C(F)(F)F)CCN(C(C)C)CC5)cc4)cc23)CC1 [Compound 738]	< 100	< 10

Structure (SMILES)	IC50 [1] [nM]	IC50 [2] [nM]
COC1(c2ccc(-c3cc4c(N5CCN(C(=O)[C@H]6C[C@H](C#N)C6)CC5)ccnn4c3)cc2)CCN([C@H](C)CO)CC1 [Compound 739]	< 100	< 10
COC1(c2ccc(-c3cc4c(N5CCN(C(=O)[C@H]6C[C@H](C#N)C6)CC5)ccnn4c3)cc2)CCN([C@@H](C)CO)CC1 [Compound 740]	< 100	< 10
COC1(c2ccc(-c3cc4c(N5CCN(C(=O)[C@H]6C[C@H](C#N)C6)CC5)ccnn4c3)nc2)CCN([C@@H](C)CO)CC1 [Compound 741]	< 100	< 10
COC[C@H](C)N1CCC(OC)(c2ccc(-c3cc4c(N5CCN(C(=O)OC6COC6)CC5)ccnn4c3)nc2)CC1 [Compound 743]	< 100	< 10
COC[C@@H](C)N1CCC(OC)(c2ccc(-c3cc4c(N5CCN(C(=O)OC6COC6)CC5)ccnn4c3)nc2)CC1 [Compound 744]	< 100	< 10
COC[C@H](C)N1CCC(OC)(c2ccc(-c3cc4c(N5CCN(C(=O)[C@H]6C[C@H](C#N)C6)CC5)ccnn4c3)cc2)CC1 [Compound 745]	< 100	< 10
COC[C@@H](C)N1CCC(OC)(c2ccc(-c3cc4c(N5CCN(C(=O)[C@H]6C[C@H](C#N)C6)CC5)ccnn4c3)cc2)CC1 [Compound 746]	< 100	< 10
CC(C)N1CCC(c2ccc(-c3cc4c(N5CCN(C(=O)OC6COC6)CC5)ccnn4c3)cc2)(C(F)(F)F)CC1 [Compound 747]	< 100	< 10
COC[C@H](C)N1CCC(OC)(c2ccc(-c3cc4c(N5CCN(C(=O)[C@H]6C[C@H](C#N)C6)CC5)ccnn4c3)nc2)CC1 [Compound 748]	< 100	< 10
COC[C@@H](C)N1CCC(OC)(c2ccc(-c3cc4c(N5CCN(C(=O)[C@H]6C[C@H](C#N)C6)CC5)ccnn4c3)nc2)CC1 [Compound 749]	< 100	< 10
COC1(c2ccc(-c3cc4c(N5CCN(C(=O)NC(C)C)CC5)ccnn4c3)nc2)CCN([C@H](C)COC(F)F)CC1 [Compound 750]	< 100	< 10
N[C@H](CO)c1ccc(-c2cc3c(N4CCN(C(=O)C5CC5)CC4)ccnn3c2)cc1 [Compound 752]	100 to 500	< 10
CC(C)(O)C(N)c1ccc(-c2cc3c(N4CCN(C(=O)C5CC5)CC4)ccnn3c2)cc1 (stereo not drawn) [Compound 761]	< 100	< 10
CCOC(=O)N1CCN(c2ccnn3cc(-c4ccc(C(N)C(C)(C)O)cc4)cc23)CC1 (stereo not drawn) [Compound 764]	< 100	< 10
CC(C)N[C@@H](CO)c1ccc(-c2cc3c(N4CCN(C(=O)C5CC5)CC4)ccnn3c2)cc1 [Compound 770]	< 100	< 10
CCOC(=O)N1CCN(c2ccnn3cc(-c4ccc([C@@]5(OC)CCCNC5)cn4)cc23)CC1 [Compound 778]	< 100	< 10

Continued, values first:

IC50 [1] [nM]	IC50 [2] [nM]	Structure (SMILES)
< 100	< 10	CO[C@@]1(c2ccc(-c3cc4c(N5CCN(C(=O)OC6COC6)CC5)ccnn4c3)nc2)CCCN(C(C)C)C1 [Compound 718]
100 to 500	< 10	CC(C)N1CCC(c2ccc(-c3cc4c(N5CCN(C(=O)OC6COC6)CC5)ccnn4c3)c(Cl)c2)CC1 [Compound 726]
100 to 500	< 10	CC(C)(C)OC(=O)N1CCC(N)(c2ccc(-c3cc4c(N5CCN(C(=O)C6CC6)CC5)ccnn4c3)cc2)CC1 [Compound 732]
< 100	< 10	N[C@@H](CO)c1ccc(-c2cc3c(N4CCN(C(=O)C5CC5)CC4)ccnn3c2)cc1 [Compound 753]
< 100	< 10	CCOC(=O)N1CCN(c2ccnn3cc(-c4ccc([C@@H](N)CO)cc4)cc23)CC1 [Compound 754]
100 to 500	< 10	NC1(c2ccc(-c3cc4c(N5CCN(C(=O)C6CC6)CC5)ccnn4c3)cc2)COC1 [Compound 755]
100 to 500	< 10	O=C(C1CC1)N1CCN(c2ccnn3cc(-c4ccc(CNC5COC5)cc4)cc23)CC1 [Compound 760]
100 to 500	< 10	N[C@H](CO)c1ccc(-c2cc3c(N4CCN(C(=O)OC5COC5)CC4)ccnn3c2)cc1 [Compound 762]
< 100	< 10	N[C@@H](CO)c1ccc(-c2cc3c(N4CCN(C(=O)OC5COC5)CC4)ccnn3c2)cc1 [Compound 763]
< 100	< 10	NC1(c2ccc(-c3cc4c(N5CCN(C(=O)C6CC6)CC5)ccnn4c3)cc2)CCOCC1 [Compound 768]
< 100	< 10	CC(N)(CO)c1ccc(-c2cc3c(N4CCN(C(=O)OC5COC5)CC4)ccnn3c2)cc1 (stereo not drawn) [Compound 771]
100 to 500	< 10	O=C(OC1COC1)N1CCN(c2ccnn3cc(-c4ccc(C5CCNCC5)cc4)cc23)CC1 [Compound 773]
< 100	< 10	O=C(OC1COC1)N1CCN(c2ccnn3cc(-c4ccc([C@@H]5CCCNC5)cc4)cc23)CC1 [Compound 774]
< 100	< 10	O=C(OC1COC1)N1CCN(c2ccnn3cc(-c4ccc(N5CCNCC5)cc4)cc23)CC1 [Compound 775]
< 100	< 10	O=C(OC1COC1)N1CCN(c2ccnn3cc(-c4ccc(N5CCNCC5)cn4)cc23)CC1 [Compound 776]
< 100	< 10	CCOC(=O)N1CCN(c2ccnn3cc(-c4ccc([C@]5(OC)CCCNC5)cc4)cc23)CC1 [Compound 777]
< 100	< 10	CC(C)(O)C(N)c1ccc(-c2cc3c(N4CCN(C(=O)OC5COC5)CC4)ccnn3c2)cc1 (stereo not drawn) [Compound 779]
< 100	< 10	CCN[C@@H](CO)c1ccc(-c2cc3c(N4CCN(C(=O)OC5COC5)CC4)ccnn3c2)cc1 [Compound 780]
< 100	< 10	CCOC(=O)N1CCN(c2ccnn3cc(-c4ccc([C@@]5(OCC)CCCNC5)cc4)cc23)CC1 [Compound 782]
